Here are results for 1 compound from EP0497091A1, “Bridged cyclic ketal derivatives” (GLAXO GROUP LIMITED, priority 1991, dated 1992).

pIC50: −log10 of the molar value. Values after ≈ are worked out from the molar mass of the structure shown. Where only a bound is given, the exact number is not on record here.

The test system of assay [1] is clinically relevant pathogens. The assay can be described thus: In vitro antifungal activity, agar plate MIC determination. Format: cell-based. To be noted: Candida albicans. The procedure: The in vitro evaluation of the anti-fungal activity of compounds of the invention can be performed by determining the minimum inhibitory concentration (MIC) which is the concentration of the test compound in a suitable medium at which growth of a particular microorganism fails to occur.
[¹⁴C] Squalene was separated from unreacted substrate on thin layer chromatography plates and determined by liquid scintillation counting. Inhibition of squalene synthase was quantified by incubating rat liver homogenate with various concentrations of the test compound in the presence of [2-¹⁴C] farnesylpyrophosphate. The concentration of compound giving 50% inhibition of [¹⁴C] squalene production in a 30 minute assay was taken as the IC₅₀ value. […] In practice, a series of agar plates, each having the test compound incorporated at a particular concentration, was inoculated with a standard culture of a clinically relevant pathogen, for example Candida albicans, and each plate was then incubated at 37 °C for 24 to 48 hours depending on the pathogen.

The target in another assay is T1, squalene synthase (Rattus norvegicus, UniProt Q02769).
T1 construct: from tissue; host or cells: rat liver homogenate
T1 sequence (Q02769 1-416): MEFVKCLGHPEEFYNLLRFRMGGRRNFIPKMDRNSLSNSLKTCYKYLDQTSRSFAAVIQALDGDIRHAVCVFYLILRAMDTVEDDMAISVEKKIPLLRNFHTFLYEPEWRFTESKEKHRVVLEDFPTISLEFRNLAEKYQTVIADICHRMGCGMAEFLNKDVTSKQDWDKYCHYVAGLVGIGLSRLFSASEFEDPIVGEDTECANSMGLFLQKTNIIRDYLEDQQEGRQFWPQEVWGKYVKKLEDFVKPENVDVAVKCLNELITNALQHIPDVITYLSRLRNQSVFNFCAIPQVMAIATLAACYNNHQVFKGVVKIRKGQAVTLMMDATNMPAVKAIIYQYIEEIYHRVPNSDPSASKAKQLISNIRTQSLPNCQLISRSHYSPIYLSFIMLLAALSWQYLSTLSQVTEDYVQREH
Description: Inhibition of squalene synthase ([14C]squalene production from [2-14C]farnesylpyrophosphate). In kind it is biochemical. Summed up: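 Rat liver homogenate incubated 30 min with test compound and [2-14C]farnesylpyrophosphate. [14C]squalene separated from substrate by TLC and counted by liquid scintillation; IC50 is the concentration giving 50% inhibition of squalene production.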

A word on the MIC: it is the least concentration at which growth counts as inhibited. Read a high MIC as weaker potency. The pIC50 is −log10 of the IC50, conventionally taken in molar units. Compound `C=C(CC[C@]12O[C@H](C(=O)O)[C@@](O)(C(=O)O)[C@](C(=O)O)(O1)[C@H](OC(=O)OCCCCCCCCC)[C@H]2O)[C@@H](OC(C)=O)[C@H](C)Cc1ccccc1` (relative stereo) [Example 57, [1S-[1α(4R*,5S*),3α,4β.5α,6α,7β]] 1-(4-Acetyloxy-5-methyl-3-methylene-6-phenylhexyl)-4,7-dihydroxy-6-[(nonoxycarbonyl)oxy]-2,8-dioxabicyclo[3.2.1]octane-3,4,5-tricarboxylic acid] yielded an MIC in assay [1] of 0.1 to 31 µg/mL (≈ 0.141 to 43.7 µM). The compound further showed a pIC50 at squalene synthase of over 7.00.
